Details of data set [1]: unit not given here. The note with it: PCBM analogues described by Hummelen et al.; cited from earlier work.
A short description of data set [2]: Cyclic voltammetry: reduction potentials and energy of the LUMO. The format is physicochemical. The following applies: 1,2-dichlorobenzene, Bu4NClO4 (0.1 M), Pt wire counter electrode, 50 mV/s scan rate. From the text: The synthesis of fullerenol was previously reported.^6 From fullerenol, we herein report on the syntheses of a set of derivatives by arylation as described in FIG. 1. In a typical reaction, fullerenol is reacted with a specific substrate (a substituted aryl) used as the solvent in the presence of p-toluene sulfonic acid (TsOH) as the catalyst. Following this procedure we synthesized: PEHOB (FIG. 2) (C60 functionalized with a phenyl group on C1 and an ethylhexyloxybenzene group on C4), PCVM (FIG. 3) (Phenyl on C1 and phenylvaleric acid methyl ester on C4), PTHOB (FIG. 4) (phenyl on C1 and trihexyloxyphenyl on C4), PFOH (FIG. 5) (phenyl on C1 and hydroxyl on C4); PFTFP (FIG. 6) (p-trifluorophenyl on C1 and pentafluorophenyl on C4) and ANP (FIG. 7) (phenyl on C1 and aniline on C4). 1H NMR, 13C NMR, 19F NMR and field desorption (FD) mass spectroscopy confirmed the identity of the products. The adducts were further characterized by cyclic voltammetry (CV) and UV-vis spectroscopy. […] From the first reduction potential calculated by CV we determined the energy of the LUMO. An estimated value of the HOMO was inferred from the onset of the UV-vis spectra. In order to modify the property of the derivatives, we appended (i) long alkyl chains to increase solubility and (ii) electron withdrawing or (iii) electron donating groups to stabilize or destabilize the energy of the LUMO respectively. Due to the spherical shape of C60, heteroatoms or functional groups appended on the fullerene can only affect the energy of the molecular orbitals by induction. Therefore, an electron donating group directly bound to C60 such a methoxy will […] the energy of the LUMO because of the higher electronegativity of the oxygen. […] These values are in agreement with previous reports.^8, 9 Table 1 (see below) summarizes the electrochemical data calculated for all the derivatives. […]

Regarding `COC(=O)CCCC1(c2ccccc2)C23c4c5c6c7c8c9c(c%10c%11c2c2c%12c4c4c%13c5c5c7c7c8c8c%14c9c%10c9c%10c%11c2c2c%11c%12c4c4c%12c%13c5c5c7c7c8c8c%14c9c9c%10c2c2c%11c4c4c%12c5c7c5c8c9c2c45)C613` (stereo not shown) [PCBM, [6,6]-phenyl-C61-butyric acid methyl ester], the redox potential in data set [1] was −1.08. For the same compound, in data set [2], the E1red was −1.056 V vs Fc/Fc+, the E2red is recorded as −1.471 V vs Fc/Fc+ and the E3red is −1.957 V vs Fc/Fc+.
